Experimental data as given in article PMC11287240 (RSC Advances, 2024).
Read-outs that look alike come from different tables or passages of the source.

Experiments:
hBACE 1 = hBACE 1 (Homo sapiens, UniProt P56817); assay: BACE 1 FRET inhibition assay; format: biochemical; conditions: human BACE 1
[1] = biological target: EeAChE (Electrophorus electricus acetylcholinesterase) (Electrophorus electricus, UniProt O42275); assay: AChE inhibition assay; format: biochemical, electric eel
[2] = hBACE 1 IC50 (μM) ± SD, mean ± SD, n = 3, FRET assay
[3] = read-out: hBACE 1 IC50 (μM) ± SD, mean ± SD, n = 3, FRET assay
[4] = read-out: EeAChE IC50 (μM) ± SD, mean ± SD, n = 3, AChE from electric eel, Ellman assay

hBACE 1, sequence (P56817 46-501): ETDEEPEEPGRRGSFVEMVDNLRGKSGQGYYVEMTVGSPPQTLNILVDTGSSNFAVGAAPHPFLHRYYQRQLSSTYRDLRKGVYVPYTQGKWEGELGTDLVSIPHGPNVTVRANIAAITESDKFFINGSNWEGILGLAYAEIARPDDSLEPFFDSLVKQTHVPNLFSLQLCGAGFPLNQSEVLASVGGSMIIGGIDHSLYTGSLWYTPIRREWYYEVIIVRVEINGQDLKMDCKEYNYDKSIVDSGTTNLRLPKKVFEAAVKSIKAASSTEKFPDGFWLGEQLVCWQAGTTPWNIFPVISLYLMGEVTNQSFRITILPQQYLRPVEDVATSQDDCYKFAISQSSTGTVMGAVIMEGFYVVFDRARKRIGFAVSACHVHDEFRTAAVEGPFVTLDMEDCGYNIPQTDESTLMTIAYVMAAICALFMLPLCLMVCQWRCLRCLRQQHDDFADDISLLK
EeAChE (Electrophorus electricus acetylcholinesterase), sequence (O42275 24-633): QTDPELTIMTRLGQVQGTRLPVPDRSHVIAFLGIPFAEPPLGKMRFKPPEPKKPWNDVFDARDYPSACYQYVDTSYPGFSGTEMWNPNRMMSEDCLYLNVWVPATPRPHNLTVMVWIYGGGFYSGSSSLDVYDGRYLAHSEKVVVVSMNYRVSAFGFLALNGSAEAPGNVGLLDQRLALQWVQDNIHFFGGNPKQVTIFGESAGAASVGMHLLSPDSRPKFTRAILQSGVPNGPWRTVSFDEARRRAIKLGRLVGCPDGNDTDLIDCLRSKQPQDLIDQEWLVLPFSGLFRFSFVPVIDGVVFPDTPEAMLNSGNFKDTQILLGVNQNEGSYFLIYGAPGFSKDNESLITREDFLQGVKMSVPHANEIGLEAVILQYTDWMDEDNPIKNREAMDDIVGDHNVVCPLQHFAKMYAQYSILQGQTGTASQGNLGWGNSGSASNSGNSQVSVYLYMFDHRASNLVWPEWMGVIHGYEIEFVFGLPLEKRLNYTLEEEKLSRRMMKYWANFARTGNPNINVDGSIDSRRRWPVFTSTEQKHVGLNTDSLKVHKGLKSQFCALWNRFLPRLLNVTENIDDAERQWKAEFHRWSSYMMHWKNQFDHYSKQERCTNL

Compound | IC50 (hBACE 1; [2]) [µM] | IC50 (hBACE 1; hBACE 1 PIC50 (μM)) [µM] | IC50 [1] [µM] | hBACE 1 PIC50 (hBACE 1) [µM] | IC50 (hBACE 1; [3]) [µM] | EeAChE PIC50 ([1]; AChE from electric eel) [µM] | IC50 [1, 4] [µM]
[H]/N=C(/N)NN=C(/C=C/c1ccc(OC)c(OC)c1)c1cn(Cc2ccccc2)c2ccccc12 [Compound 1c, (Z)-2-((E)-1-(1-Benzyl-1H-indol-3-yl)-3-(3,4-dimethoxyphenyl)allylidene)hydrazine-1-carboximidamide] | 59.51 ± 0.21 | 58.9 | 77.1 ± 1.54 | – | – | – | –
[H]/N=C(/N)NN=C(/C=C/c1ccc(C(F)(F)F)cc1)c1cn(Cc2ccc(C(F)(F)F)cc2)c2ccccc12 [Compound 3a, (Z)-2-((E)-1-(1-(4-(Trifluoromethyl)benzyl)-1H-indol-3-yl)-3-(4-(trifluoromethyl)phenyl)allylidene)hydrazine-1-carboximidamide] | – | – | – | 3.65 | 222.3 ± 0.49 | 4.42 | 38.4 ± 3.46
[H]/N=C(/N)NN=C(/C=C/c1ccccc1)c1cn(Cc2ccc(C(F)(F)F)cc2)c2ccccc12 [Compound 2b, (Z)-2-((E)-3-Phenyl-1-(1-(4-(trifluoromethyl)benzyl)-1H-indol-3-yl)allylidene)hydrazine-1-carboximidamide] | 102 ± 1.06 | 102 | 56 ± 2.44 | – | – | – | –
[H]/N=C(/N)NN=C(/C=C/c1cccc(OCc2ccccc2)c1)c1cn(Cc2ccccc2)c2ccccc12 [Compound 1o, (Z)-2-((E)-1-(1-Benzyl-1H-indol-3-yl)-3-(3-(benzyloxy)phenyl)allylidene)hydrazine-1-carboximidamide] | 12.8 ± 0.42 | 12.9 | 126.6 ± 0.99 | – | – | – | –
[H]/N=C(/N)NN=C(/C=C/c1ccc(C#N)cc1)c1cn(Cc2ccccc2)c2ccccc12 [Compound 1l, (Z)-2-((E)-1-(1-Benzyl-1H-indol-3-yl)-3-(4-cyanophenyl)allylidene)hydrazine-1-carboximidamide] | 9.38 ± 0.5 | 9.33 | 60.9 ± 2.53 | – | – | – | –
[H]/N=C(/N)NN=C(/C=C/c1ccccc1)c1cn(Cc2ccc(Br)cc2F)c2ccccc12 [Compound 2i, (Z)-2-((E)-1-(1-(4-Bromo-2-fluorobenzyl)-1H-indol-3-yl)-3-phenylallylidene)hydrazine-1-carboximidamide] | 185.95 ± 0.07 | 186 | 42.6 ± 1.58 | – | – | – | –
[H]/N=C(/N)NN=C(/C=C/c1ccccc1)c1cn(Cc2cc(OC)cc(OC)c2)c2ccccc12 [Compound 2g, (Z)-2-((E)-1-(1-(3,5-Dimethoxybenzyl)-1H-indol-3-yl)-3-phenylallylidene)hydrazine-1-carboximidamide] | 83.4 ± 1.93 | 83.2 | 55.6 ± 0.72 | – | – | – | –
[H]/N=C(/N)NN=C(/C=C/c1ccc(OCc2ccccc2)cc1)c1cn(Cc2ccc(C)cc2)c2ccccc12 [Compound 3e, (Z)-2-((E)-3-(4-(Benzyloxy)phenyl)-1-(1-(4-methylbenzyl)-1H-indol-3-yl)allylidene)hydrazine-1-carboximidamide] | 107 ± 2.55 | 107 | 144 ± 1.77 | – | – | – | –
[H]/N=C(/N)NN=C(/C=C/c1ccc(OCc2ccccc2)cc1)c1cn(Cc2cccc(OCc3ccccc3)c2)c2ccccc12 [Compound 3i, (Z)-2-((E)-1-(1-(3-(Benzyloxy)benzyl)-1H-indol-3-yl)-3-(4-(benzyloxy)phenyl)allylidene)hydrazine-1-carboximidamide] | 189 ± 1.91 | 191 | 26.99 ± 0.13 | – | – | – | –
[H]/N=C(/N)NN=C(/C=C/c1ccc(C(C)(C)C)cc1)c1cn(Cc2ccc(Br)cc2)c2ccccc12 [Compound 3g, (Z)-2-((E)-1-(1-(4-Bromobenzyl)-1H-indol-3-yl)-3-(4-(tert-butyl)phenyl)allylidene)hydrazine-1-carboximidamide] | 178.2 ± 0.92 | 178 | 156 ± 2.62 | – | – | – | –
[H]/N=C(/N)NN=C(/C=C/c1ccccc1)c1cn(Cc2ccccc2F)c2ccccc12 [Compound 2h, (Z)-2-((E)-1-(1-(2-Fluorobenzyl)-1H-indol-3-yl)-3-phenylallylidene)hydrazine-1-carboximidamide] | 143.2 ± 0.21 | 145 | 62.86 ± 0.62 | – | – | – | –
[H]/N=C(/N)NN=C(/C=C/c1cccc(OC)c1)c1cn(Cc2ccccc2)c2ccccc12 [Compound 1e, (Z)-2-((E)-1-(1-Benzyl-1H-indol-3-yl)-3-(3-methoxyphenyl)allylidene)hydrazine-1-carboximidamide] | 117.2 ± 0.57 | 117 | 137.8 ± 0.14 | – | – | – | –
[H]/N=C(/N)NN=C(/C=C/c1ccccc1)c1cn(Cc2ccccc2C#N)c2ccccc12 [Compound 2e, (Z)-2-((E)-1-(1-(2-Cyanobenzyl)-1H-indol-3-yl)-3-phenylallylidene)hydrazine-1-carboximidamide] | 197 ± 2.42 | 195 | 44.02 ± 0.19 | – | – | – | –
[H]/N=C(/N)NN=C(/C=C/c1ccc(C(C)C)cc1)c1cn(Cc2ccccc2)c2ccccc12 [Compound 1d, (Z)-2-((E)-1-(1-Benzyl-1H-indol-3-yl)-3-(4-isopropylphenyl)allylidene)hydrazine-1-carboximidamide] | 11.7 ± 0.15 | 11.7 | 146 ± 3.18 | – | – | – | –
[H]/N=C(/N)NN=C(/C=C/c1ccc(OC)c(OC)c1)c1cn(Cc2cc(OC)cc(OC)c2)c2ccccc12 [Compound 3b, (Z)-2-((E)-1-(1-(3,5-Dimethoxybenzyl)-1H-indol-3-yl)-3-(3,4-dimethoxyphenyl)allylidene)hydrazine-1-carboximidamide] | 198 ± 3.18 | 200 | 22 ± 0.65 | – | – | – | –
[H]/N=C(/N)NN=C(/C=C/c1ccc(Br)cc1)c1cn(Cc2ccccc2)c2ccccc12 [Compound 1i, (Z)-2-((E)-1-(1-Benzyl-1H-indol-3-yl)-3-(4-bromophenyl)allylidene)hydrazine-1-carboximidamide] | 97.83 ± 0.31 | 97.7 | 73.1 ± 2.07 | – | – | – | –
[H]/N=C(/N)NN=C(/C=C/c1cc(OC)ccc1OC)c1cn(Cc2ccc(CCCC)cc2)c2ccccc12 [Compound 3l, (Z)-2-((E)-1-(1-(4-Butylbenzyl)-1H-indol-3-yl)-3-(2,5-dimethoxyphenyl)allylidene)hydrazine-1-carboximidamide] | 196 ± 3.04 | 195 | 58.4 ± 0.91 | – | – | – | –
[H]/N=C(/N)NN=C(/C=C/c1ccc(Cl)cc1)c1cn(Cc2ccccc2)c2ccccc12 [Compound 1q, (Z)-2-((E)-1-(1-Benzyl-1H-indol-3-yl)-3-(4-chlorophenyl)allylidene)hydrazine-1-carboximidamide] | 16.5 ± 0.39 | 16.6 | 82.6 ± 1.92 | – | – | – | –
[H]/N=C(/N)NN=C(/C=C/c1ccc(F)c(F)c1)c1cn(Cc2ccc(C(C)(C)C)cc2)c2ccccc12 [Compound 3d, (Z)-2-((E)-1-(1-(4-(tert-Butyl)benzyl)-1H-indol-3-yl)-3-(3,4-difluorophenyl)allylidene)hydrazine-1-carboximidamide] | – | – | – | 4.11 | 76.9 ± 2.38 | 3.71 | 195.9 ± 1.73
[H]/N=C(/N)NN=C(/C=C/c1ccc(C)cc1)c1cn(Cc2ccccc2)c2ccccc12 [Compound 1k, (Z)-2-((E)-1-(1-Benzyl-1H-indol-3-yl)-3-(p-tolyl)allylidene)hydrazine-1-carboximidamide] | 132.1 ± 0.28 | 132 | 186 ± 2.69 | – | – | – | –
[H]/N=C(/N)NN=C(/C=C/c1ccccc1[N+](=O)[O-])c1cn(Cc2ccccc2)c2ccccc12 [Compound 1n, (Z)-2-((E)-1-(1-Benzyl-1H-indol-3-yl)-3-(2-nitrophenyl)allylidene)hydrazine-1-carboximidamide] | 12.3 ± 0.6 | 12.3 | 216 ± 3.61 | – | – | – | –
[H]/N=C(/N)NN=C(/C=C/c1ccccc1C)c1cn(Cc2ccccc2)c2ccccc12 [Compound 1r, (Z)-2-((E)-1-(1-Benzyl-1H-indol-3-yl)-3-(o-tolyl)allylidene)hydrazine-1-carboximidamide] | 206 ± 3.75 | 204 | 46.8 ± 1.83 | – | – | – | –
[H]/N=C(/N)NN=C(/C=C/c1cc(OC)ccc1OC)c1cn(Cc2ccccc2)c2ccccc12 [Compound 1j, (Z)-2-((E)-1-(1-Benzyl-1H-indol-3-yl)-3-(2,5-dimethoxyphenyl)allylidene)hydrazine-1-carboximidamide] | 72.2 ± 1.76 | 72.4 | 61 ± 2.29 | – | – | – | –
[H]/N=C(/N)NN=C(/C=C/c1ccc(C(C)(C)C)cc1)c1cn(Cc2ccc(C(F)(F)F)cc2)c2ccccc12 [Compound 3k, (Z)-2-((E)-3-(4-(tert-Butyl)phenyl)-1-(1-(4-(trifluoromethyl)benzyl)-1H-indol-3-yl)allylidene)hydrazine-1-carboximidamide] | 139 ± 1.98 | 138 | 207 ± 7.64 | – | – | – | –
[H]/N=C(/N)NN=C(/C=C/c1ccccc1)c1cn(Cc2ccc(Cl)cc2)c2ccccc12 [Compound 2f, (Z)-2-((E)-1-(1-(4-Chlorobenzyl)-1H-indol-3-yl)-3-phenylallylidene)hydrazine-1-carboximidamide] | 213 ± 2.26 | 214 | 42.8 ± 2.79 | – | – | – | –
[H]/N=C(/N)NN=C(/C=C/c1ccc(C(F)(F)F)cc1)c1cn(Cc2ccc(CCCC)cc2)c2ccccc12 [Compound 3j, (Z)-2-((E)-1-(1-(4-Butylbenzyl)-1H-indol-3-yl)-3-(4-(trifluoromethyl)phenyl)allylidene)hydrazine-1-carboximidamide] | 182.4 ± 1.41 | 182 | 13.4 ± 0.49 | – | – | – | –
[H]/N=C(/N)NN=C(/C=C/c1ccc(N(C)C)cc1)c1cn(Cc2ccccc2)c2ccccc12 [Compound 1g, (Z)-2-((E)-1-(1-Benzyl-1H-indol-3-yl)-3-(4-(dimethylamino)phenyl)allylidene)hydrazine-1-carboximidamide] | 89 ± 2.29 | 89.1 | 78.2 ± 2.28 | – | – | – | –
[H]/N=C(/N)NN=C(/C=C/c1cccc(Br)c1)c1cn(Cc2ccccc2)c2ccccc12 [Compound 1h, (Z)-2-((E)-1-(1-Benzyl-1H-indol-3-yl)-3-(3-bromophenyl)allylidene)hydrazine-1-carboximidamide] | 15.1 ± 0.74 | 15.1 | 66.3 ± 1.72 | – | – | – | –
